Laboratory results as given in US10821115B2, “Compounds that inhibit Mcl-1 protein” (priority 2017, dated 2020).
Like-named read-outs stand apart in the source and are kept apart here.

Assays:
[1] = system: human multiple myeloma cell line, OPM-2; assay: Cell viability assay (OPM-2 10 FBS), CellTiter-Glo; type: cell-based
How it was run: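 IC50 values come from 4-parameter logistic fits of luminescence signals reflecting cell viability. Treatment lasted 16 h at 37 °C in complete medium with 10% FBS, starting from 3000 cells/well.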

[2] = target: recombinant human Mcl-1 (residues 171-327) / Bim interaction (Homo sapiens (Human), UniProt Q07820); assay: biochemical; type: binding; conditions: read-out: Mcl-1 HTRF IC50
[3] = Homo sapiens, OPM-2, 16 h, read-out: OPM-2 10% FBS IC50 IP, OPM-2 cells, 10% FBS, 16 h, CellTiter-Glo
[4] = TR-FRET, Mcl-1(171-327) / biotin-Bim (51-76)
[5] = 0.1 nM Mcl-1(171-327), 0.05 nM biotin-Bim (51-76)
[6] = Homo sapiens, OPM-2, 16 h, read-out: OPM-2 10% FBS IC50 IP, OPM-2 cells, 10% FBS, 16 h incubation

recombinant human Mcl-1 (residues 171-327) / Bim interaction, sequence (Q07820 171-327): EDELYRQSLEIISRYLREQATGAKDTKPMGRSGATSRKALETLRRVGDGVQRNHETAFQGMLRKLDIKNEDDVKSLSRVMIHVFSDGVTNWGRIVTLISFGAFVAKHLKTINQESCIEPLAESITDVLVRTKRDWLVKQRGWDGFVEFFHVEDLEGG

What does the source list for `C[C@@H]1[C@@H](C)C/C=C/[C@@](O)(c2ncnn2C)C2CC[C@H]2CN2C[C@@]3(CCCc4cc(Cl)ccc43)COc3ccc(cc32)C(=O)NS1(=O)=O` (stereo in doubt) [Example 100222, (1S,3′R,6′S,7′S,8′E,11′S,12′R)-6-chloro-7′-hydroxy-11′,12′-dimethyl-7′-(1-methyl-1H-1,2,4-triazol-5-yl)-3,4-dihydro-2H,15′H-spiro[naphthalene-1,22′-[20]oxa[13]thia[1,14]diazatetracyclo [14.7.2.0~3,6~.0~19,24~]pentacosa[8,16,18,24]tetraen]-15′-one 13′,13′-dioxide]?
IC50 [1, 3]: 222 nM; IC50 [2, 4]: 0.182 nM

How did the IC50 [1, 3] turn out when `C[C@@H]1[C@@H](C)CCC[C@](O)(c2ncccn2)[C@@H]2CC[C@H]2CN2C[C@@]3(CCCc4cc(Cl)ccc43)COc3ccc(cc32)C(=O)NS1(=O)=O` (stereo in doubt) [Example 100270] was run?
The IC50 was 3720 nM.

What about the IC50 [2] of the same compound?
The IC50 was 0.776 nM.

Which results are given for `CO[C@@]1(CS(=O)(=O)C(C)C)/C=C/C[C@H](C)[C@@H](C)S(=O)(=O)NC(=O)c2ccc3c(c2)N(C[C@@H]2CC[C@H]21)C[C@@]1(CCCc2cc(Cl)ccc21)CO3` (stereo in doubt) [Example 100315, (1S,3′R,6′R,7′S,8′E,11′S,12′R)-6-chloro-7′-methoxy-11′,12′-dimethyl-7′-((2-propanylsulfonyl)methyl)-3,4-dihydro-2H,15′H-spiro[naphthalene-1,22′-[20]oxa[13]thia[1,14]diazatetracyclo [147.2.0~3,6~.0~19,24~]pentacosa[8,16,18,24]tetraen]-15′-one 13′,13′-dioxide]?
IC50 ([1]; read-out: OPM-2 10% FBS IC50 IP, OPM-2 cells, 10% FBS, 16 h, CellTiter-Glo): 153 nM; IC50 [2, 4]: 0.2 nM

Which IC50 [1, 3] does the source give for `CO[C@@]1([C@@H](C)O)/C=C/C[C@H](C)[C@@H](C)S(=O)(=O)NC(=O)c2ccc3c(c2)N(C[C@@H]2CC[C@H]21)C[C@@]1(CCCc2cc(Cl)ccc21)CO3` (stereo in doubt) [Example 100487] here?
Its IC50 is 340 nM.

And the IC50 [2, 4]?
The IC50 was 0.436 nM.

Which IC50 [1, 3] does the source give for `CO[C@]1(c2cncc(CN3CCOCC3)c2)/C=C/C[C@H](C)[C@@H](C)S(=O)(=O)NC(=O)c2ccc3c(c2)N(C[C@@H]2CC[C@H]21)C[C@@]1(CCCc2cc(Cl)ccc21)CO3` (stereo in doubt) [Example 100521] here?
Its IC50 is 296 nM.

What about the IC50 [2, 4] of the same compound?
The IC50 was 0.197 nM.

Which results are given for `C[C@@H]1[C@@H](C)C/C=C/C(O)(Cc2nccn2C)[C@@H]2CC[C@H]2CN2C[C@@]3(CCCc4cc(Cl)ccc43)COc3ccc(cc32)C(=O)NS1(=O)=O` (stereo in doubt) [Example 100523, (1S,3′R,6′R,7′S,8′E,11′S,12′R)-6-chloro-7′-hydroxy-11′,12′-dimethyl-7′-((1-methyl-1H-imidazol-2-yl)methyl)-3,4-dihydro-2H,15′H-spiro[naphthalene-1,22′-[20]oxa[13]thia[1,14]diazatetracyclo [14.7.2.0~3,6~.0~19,24~]pentacosa[8,16,18,24]tetraen]-15′-one 13′,13′-dioxide]?
IC50 [1, 3]: 622 nM; IC50 [2, 4]: 0.812 nM

Which results are given for `C[C@@H]1[C@@H](C)C/C=C/C(O)(Cc2nccn2C)[C@@H]2CC[C@H]2CN2C[C@@]3(CCCc4cc(Cl)ccc43)COc3ccc(cc32)C(=O)NS1(=O)=O` (stereo in doubt) [Example 100524, (1S,3′R,6′R,7′R,8′E,11′S,12′R)-6-chloro-7′-hydroxy-11′,12′-dimethyl-7′-((1-methyl-1H-imidazol-2-yl)methyl)-3,4-dihydro-2H,15′H-spiro[naphthalene-1,22′-[20]oxa[13]thia[1,14]diazatetracyclo [14.7.2.0~3,6~.0~19,24~]pentacosa[8,16,18,24]tetraen]-15′-one 13′,13′-dioxide]?
IC50 [1, 3]: 842 nM; IC50 [2, 4]: 0.99 nM

Which results are given for `CO[C@@]1(CC2=N[C@H](C)C(=O)O2)/C=C/C[C@H](C)[C@@H](C)S(=O)(=O)NC(=O)c2ccc3c(c2)N(C[C@@H]2CC[C@H]21)C[C@@]1(CCCc2cc(Cl)ccc21)CO3` (stereo in doubt) [Example 100531]?
IC50 [1, 3]: 172 nM; IC50 [2, 4]: 0.083 nM

Which results are given for `C[C@@H]1[C@@H](C)C/C=C/[C@](O)(c2cnccc2F)[C@@H]2CC[C@H]2CN2C[C@@]3(CCCc4cc(Cl)ccc43)COc3ccc(cc32)C(=O)NS1(=O)=O` (stereo in doubt) [Example 100537]?
IC50 [1, 3]: 256 nM; IC50 [2, 4]: 0.115 nM

With `CO[C@]1(CN2CCN(C(C)C)[C@H](C)C2)/C=C/C[C@H](C)[C@@H](C)S(=O)(=O)NC(=O)c2ccc3c(c2)N(C[C@@H]2CC[C@H]21)C[C@@]1(CCCc2cc(Cl)ccc21)CO3` [Example 8, (1 S,3′R,6′R,7′R,8′E, 11′S,12′R)-6-CHLORO-7′-METHOXY-11′,12′-DIMETHYL-7′-(((3R)-3-METHYL-4-(1-METHYLETHYL)-1-PIPERAZINYL)METHYL)-3,4-DIHYDRO-2H, 15′H-SPIRO [NAPHTHALENE-1,22′-[20]OXA[13]THIA[1,14]DIAZATETRACYCLO[14.7.2.0-3,6˜.0˜19,24˜]PENT ACOSA[8,16,18,24]TETRAEN]-15′-ONE 13′,13′-DIOXIDE] as the compound, how does the IC50 ([1]; read-out: OPM-2 10% FBS IC50 IP, OPM-2 cells, 10% FBS, 16 h incubation) read?
Its IC50 is 25 nM.

And the IC50 [2, 5]?
The IC50 was 0.053 nM.

For `COCC[C@@H]1[C@@H](C)C/C=C/[C@](CN2CCN3CCCC[C@@H]3C2)(OC)[C@@H]2CC[C@H]2CN2C[C@@]3(CCCc4cc(Cl)ccc43)COc3ccc(nc32)C(=O)NS1(=O)=O` [Example 21, (1S,3′R,6′R,7′S,8′E,11′S,12′R)-6-chloro-7′-methoxy-12′-(2-methoxyethyl)-11′-methyl-7′-((9aR)-octahydro-2H-pyrido[1,2-a]pyrazin-2-ylmethyl)-3,4-dihydro-2H, 15′H-spiro[naphthalene-1,22′-[20]oxa[13]thia[1,14,25]triazatetracyclo[14.7.2.0˜3,6˜.0˜19,24˜]pentacosa[8,16,18,24]tetraen]-15′-one 13′,13′-dioxide], which IC50 [1, 6] is on record?
The IC50 was 47 nM.

What about the IC50 [2, 5] of the same compound?
Its IC50 is 0.156 nM.

How did the IC50 [1, 6] turn out when `COCC[C@H]1[C@@H](C)C/C=C/[C@](CN2CCN3CCOC[C@@H]3C2)(OC)[C@@H]2CC[C@H]2CN2C[C@@]3(CCCc4cc(Cl)ccc43)COc3ccc(nc32)C(=O)NS1(=O)=O` [Example 22, (1S,3′R,6′R,7′S,8′E,11′S,12′S)-6-chloro-7′-((9aS)-hexahydropyrazino[2,1-c][1,4]oxazin-8(1H)-ylmethyl)-7′-methoxy-12′-(2-methoxyethyl)-11′-methyl-3,4-dihydro-2H,15′H-spiro[naphthalene-1,22′-[20]oxa[13]thia[1,14,25]triazatetracyclo [14.7.2.0~3,6~.0~19,24~]pentacosa[8,16,18,24]tetraen]-15′-one 13′,13′-dioxide] was run?
Its IC50 is 2230 nM.

And the IC50 [2, 5]?
The IC50 was 0.669 nM.

What does the source list for `COCC[C@@H]1[C@@H](C)C/C=C/[C@](CN2CCN(C3COC3)CC2)(OC)[C@@H]2CC[C@H]2CN2C[C@@]3(CCCc4cc(Cl)ccc43)COc3ccc(nc32)C(=O)NS1(=O)=O` [Example 23, (1S,3′R,6′R,7′S,8′E,11′S,12′R)-6-chloro-7′-methoxy-12′-(2-methoxyethyl)-11′-methyl-7′-((4-(3-oxetanyl)-1-piperazinyl)methyl)-3,4-dihydro-2H,15′H-spiro[naphthalene-1,22′-[20]oxa[13]thia[1,14,25]triazatetracyclo [14.7.2.0~3,6~.0~19,24~]pentacosa[8,16,18,24]tetraen]-15′-one 13′,13′-dioxide]?
IC50 [1, 6]: 24 nM; IC50 [2, 5]: 0.071 nM

`COCC[C@@H]1[C@@H](C)C/C=C/[C@](CN2CCN(C(C)C)CC2)(OC)[C@@H]2CC[C@H]2CN2C[C@@]3(CCCc4cc(Cl)ccc43)COc3ccc(nc32)C(=O)NS1(=O)=O` [Example 24, (1S,3′R,6′R,7′S,8′E,11′S,12′R)-6-chloro-7′-methoxy-12′-(2-methoxyethyl)-11′-methyl-7′-((4-(1-methylethyl)-1-piperazinyl)methyl)-3,4-dihydro-2H,15′H-spiro[naphthalene-1,22′-[20]oxa[13]thia[1,14,25]triazatetracyclo [14.7.2.0~3,6~.0~19,24~]pentacosa[8,16,18,24]tetraen]-15′-one 13′,13′-dioxide] was tested. Which IC50 [1, 6] did it give?
The IC50 was 35 nM.

And the IC50 [2, 5]?
The IC50 was 0.086 nM.

Which results are given for `COCC[C@@H]1[C@@H](C)C/C=C/[C@](CN2CCN(C(COC)COC)CC2)(OC)[C@@H]2CC[C@H]2CN2C[C@@]3(CCCc4cc(Cl)ccc43)COc3ccc(nc32)C(=O)NS1(=O)=O` [Example 25, (1S,3′R,6′R,7′S,8′E,11′S,12′R)-6-chloro-7′-methoxy-12′-(2-methoxyethyl)-7′-((4-(2-methoxy-1-(methoxymethyl)ethyl)-1-piperazinyl)methyl)-11′-methyl-3,4-dihydro-2H,15′H-spiro[naphthalene-1,22′-[20]oxa[13]thia[1,14,25]triazatetracyclo [14.7.2.0~3,6~.0~19,24~]pentacosa[8,16,18,24]tetraen]-15′-one 13′,13′-dioxide]?
IC50 [1, 6]: 41 nM; IC50 [2, 5]: 0.113 nM

What does the source list for `COCC[C@@H]1[C@@H](C)C/C=C/[C@](CN2CCN(Cc3noc(C)n3)CC2)(OC)[C@@H]2CC[C@H]2CN2C[C@@]3(CCCc4cc(Cl)ccc43)COc3ccc(nc32)C(=O)NS1(=O)=O` [Example 26, (1S,3′R,6′R,7′S,8′E,11′S,12′R)-6-chloro-7′-methoxy-12′-(2-methoxyethyl)-11′-methyl-7′-((4-((5-methyl-1,2,4-oxadiazol-3-yl)methyl)-1-piperazinyl)methyl)-3,4-dihydro-2H,15′H-spiro[naphthalene-1,22′-[20]oxa[13]thia[1,14,25]triazatetracyclo [14.7.2.0~3,6~.0~19,24~]pentacosa[8,16,18,24]tetraen]-15′-one 13′,13′-dioxide]?
IC50 [1, 6]: 32 nM; IC50 [2, 5]: 0.079 nM
